# Results from patent publication US20250075190A1, “DE NOVO DESIGNED LUCIFERASE” (UNIVERSITY OF WASHINGTON, priority 2022, published 2025).
# Key:
# Type in all cases: biochemical
# [1] = test system: LuxSit (de novo designed luciferase, SEQ ID NO:1) variant A96I; experiment: Michaelis-Menten kinetics of LuxSit A96I with DTZ; settings: substrate DTZ; mean (95% CI), n = 3; Tris pH 8.0
# Source text: (§1) Synthetic genes and oligonucleotides were purchased from Integrated DNA Technologies or GenScript. The synthetic gene was inserted between NdeI and XhoI sites of a pET29b+ vector, containing an N-terminal hexahistidine tag followed by a TEV protease cleavage site and a C-terminal stop codon. Restriction endonucleases, Q5 PCR polymerase, and T4 ligase were purchased from NEB. Plasmid DNA, PCR products, or digested fragments were purified by Qiagen DNA purification kits. DNA sequences were analyzed by Genewiz. Coelenterazine (CTZ) was purchased from Gold Biotechnology. Diphenylterazine (DTZ), pyridyl diphenylterazine (8pyDTZ), and Furimazine (FRZ) were purchased from MedChemExpress. […] DNA and protein concentrations were determined by a NanoDrop™ small-volume 8 channel UV/vis spectrometer. […] All luminescence measurements were acquired by a Biotek Synergy Neo2T™ Multi-Mode Plate Reader. To convert relative arbitrary unit (RLU) to the number of photons, Neo2 plate reader was calibrated by determining the chemiluminescence of luminol with known quantum yield in the presence of horseradish peroxidase and hydrogen peroxide in K2CO3 aqueous solution as previously described^45. SDS PAGE and luminescence images were captured by a Bio-Rad ChemiDocT™ XRS+. Images were analyzed using the Fiji image analysis software. […]
# [2] = test system: LuxSit (de novo designed luciferase, SEQ ID NO:1) variant M110C; experiment: Michaelis-Menten kinetics of LuxSit M110C with DTZ; settings: substrate DTZ; mean (95% CI), n = 3; Tris pH 8.0
# Source text: as §1
# [3] = test system: LuxSit (de novo designed luciferase, parent, 60R/96A/98H/110M; SEQ ID NO:1); experiment: Michaelis-Menten kinetics of LuxSit (parent) with DTZ; settings: substrate DTZ; mean (95% CI), n = 3; Tris pH 8.0
# Source text: as §1
# [4] = test system: LuxSit (de novo designed luciferase, SEQ ID NO:1) variant H98N; experiment: Michaelis-Menten kinetics of LuxSit H98N with DTZ; settings: substrate DTZ; mean (95% CI), n = 3; Tris pH 8.0
# Source text: as §1
# [5] = test system: LuxSit (de novo designed luciferase, SEQ ID NO:1) variant Y14E; experiment: Michaelis-Menten kinetics of LuxSit Y14E with DTZ; settings: substrate DTZ; mean (95% CI), n = 3; Tris pH 8.0
# Source text: as §1
# [6] = test system: LuxSit (de novo designed luciferase, SEQ ID NO:1) variant R60C; experiment: Michaelis-Menten kinetics of LuxSit R60C with DTZ; settings: substrate DTZ; mean (95% CI), n = 3; Tris pH 8.0
# Source text: as §1
# [7] = test system: LuxSit-f (de novo designed luciferase; LuxSit variant A96M/M110V, 60R/96M/98H/110V; SEQ ID NO:3); experiment: Michaelis-Menten kinetics of LuxSit-f with DTZ; settings: substrate DTZ; for Km / Vmax: Tris pH 8.0
# Source text: (§2) Synthetic genes and oligonucleotides were purchased from Integrated DNA Technologies or GenScript. The synthetic gene was inserted between NdeI and XhoI sites of a pET29b+ vector, containing an N-terminal hexahistidine tag followed by a TEV protease cleavage site and a C-terminal stop codon. Restriction endonucleases, Q5 PCR polymerase, and T4 ligase were purchased from NEB. Plasmid DNA, PCR products, or digested fragments were purified by Qiagen DNA purification kits. DNA sequences were analyzed by Genewiz. Coelenterazine (CTZ) was purchased from Gold Biotechnology. Diphenylterazine (DTZ), pyridyl diphenylterazine (8pyDTZ), and Furimazine (FRZ) were purchased from MedChemExpress. All other coelenterazine analogs (bis-CTZ: bisdeoxycoelenterazine; f-CTZ: f-Coelenterazine; e-CTZ: e-Coelenterazine-F; PP-CTZ: methoxy e-Coelenterazine; v-CTZ: v-Coelenterazine. All other chemicals were purchased from Sigma-Aldrich or Fisher Scientific and used without further purification. To identify the molecular mass of each protein, intact mass spectra were obtained via reverse-phase LC/MS on an Agilent 6230B TOF on an AdvanceBio RP-Desalting column and subsequently deconvoluted by Bioconfirm software using a […] algorithm. AKTA pure M with UNICORN 6.3.2 Workstation control (GE Healthcare) coupled with a Superdex™ 75 Increase 10/300 GL column was used for size exclusion chromatography. DNA and protein concentrations were determined by a NanoDrop™ small-volume 8 channel UV/vis spectrometer. CD spectra and CD melting experiments were performed by the default setting on a J-1500 Circular Dichroism Spectropolarimeter (Jasco). All luminescence measurements were acquired by a Biotek Synergy Neo2T™ Multi-Mode Plate Reader. To convert relative arbitrary unit (RLU) to the number of photons, Neo2 plate reader was calibrated by determining the chemiluminescence of luminol with known quantum yield in the presence of horseradish peroxidase and hydrogen peroxide in K2CO3 aqueous solution as previously described^45. SDS PAGE and luminescence images were captured by a Bio-Rad ChemiDocT™ XRS+. Images were analyzed using the Fiji image analysis software.
# (§3) Lemo21(DE3) strain was used for transformation with the pET29b+ plasmid encoding the gene of interest. Transformed cells were grown for 12 h in TB medium supplemented with kanamycin. Cells were inoculated at 1:50 ratio in 100 mL fresh TB medium, grown at 37° C. for 4 h, and then induced by IPTG for an additional 18 h at 16° C. Cells were harvested by centrifugation at 4,000 g for 10 min and resuspended in 30 mL lysis buffer (20 mM Tris-HCl pH 8.0, 300 mM NaCl, 30 mM imidazole, and Pierce™ Protease Inhibitor Tablets). Cell resuspensions were lysed by sonication for 5 min (10 s per cycle). Lysates were clarified by centrifugation at 24,000 g at 12° C. for 40 min and pre-equilibrated with 1 mL of Ni-NTA nickel agarose at 4° C. for 1 h. The resin was washed twice with 10 mL wash buffer and then eluted in 1 mL elution buffer (20 mM Tris-HCl pH 8.0, 300 mM NaCl, 300 mM imidazole). The eluted proteins were purified by size exclusion chromatography in PBS. Fractions were collected based on A280 trace, snap-frozen in liquid nitrogen, and stored at −80° C.,
# (§4) To create libraries of each single amino acid substitution at residues 13, 14, 17, 18, 35, 37, 38, 49, 52, 53, 56, 60, 65, 81, 83, 94, 96, 98, 100, 110, and 112, forward oligos mixture with degenerate codons (NDT, VHG, and TGG=1:1:0.1 ratio) and an overlapped reverse oligo were used to amplify the plasmid of LuxSit. The resulting PCR products were circularized by Gibson Assembly protocol and were subsequently used to transform ElectroMAX™ DH10B Cells. The cells were plated on 150 mm×15 mm LB agar plates supplemented with carbenicillin and L-arabinose, incubated at 37° C. overnight, and left at 4° C. for another 24 h. As described in the screening of luciferase libraries, colony-based screening by spraying DTZ solution was used to identify active colonies. […]. […]
# [8] = test system: LuxSit-i (de novo designed luciferase; LuxSit variant R60S/A96L/M110V, 60S/96L/98H/110V; SEQ ID NO:2); experiment: Michaelis-Menten kinetics of LuxSit-i with DTZ; settings: substrate DTZ; for Km / Vmax: Tris pH 8.0
# Source text: as §2, §3, §4
# [9] = test system: LuxSit (de novo designed luciferase, SEQ ID NO:1) variant A96M; experiment: Michaelis-Menten kinetics of LuxSit A96M with DTZ; settings: substrate DTZ; mean (95% CI), n = 3; Tris pH 8.0
# Source text: as §1
compound,measurement,setting,value
"O=c1c(Cc2ccccc2)nc2c(-c3ccccc3)[nH]c(-c3ccccc3)cn1-2 [DTZ, Diphenylterazine]",Km,[1],17.5 µM
same,Vmax,[1],1.3(1.1-1.5) ×10^−2 photon s^−1 molecule^−1
same,Km,[2],67.5 µM
same,Vmax,[2],0.4(0.3-0.6) ×10^−2 photon s^−1 molecule^−1
same,Km,[3],18.3 µM
same,Vmax,[3],0.32(0.29-0.37) ×10^−2 photon s^−1 molecule^−1
same,Km,[4],29.3 µM
same,Vmax,[4],0.17(0.15-0.2) ×10^−2 photon s^−1 molecule^−1
same,Km,[5],12.6 µM
same,Vmax,[5],0.19(0.17-0.21) ×10^−2 photon s^−1 molecule^−1
same,Km,[6],45.2 µM
same,Vmax,[6],0.57(0.44-0.8) ×10^−2 photon s^−1 molecule^−1
same,apparent Michaelis constant KM,[7]; in words (FIG. 3a),low μM range
same,Km,"[7]; 100 nM enzyme, Table 3",8.9 µM
same,Vmax,"[7]; 100 nM enzyme, Table 3",0.20 photon s^−1 molecule^−1
same,kcat,"[7]; kcat=Vmax/LQY, Table 3",1.8 s⁻¹
same,Km,"[7]; mean (95% CI), n = 3, Table 4",8.9 µM
same,Vmax,"[7]; mean (95% CI), n = 3, Table 4",19.7(17.9-21.9) ×10^−2 photon s^−1 molecule^−1
same,apparent Michaelis constant KM,[8]; in words (FIG. 3a),low μM range
same,Km,"[8]; 100 nM enzyme, Table 3",2.5 µM
same,Vmax,"[8]; 100 nM enzyme, Table 3",0.36 photon s^−1 molecule^−1
same,kcat,"[8]; kcat=Vmax/LQY, Table 3",2.5 s⁻¹
same,Km,"[8]; mean (95% CI), n = 3, Table 4",2.5 µM
same,Vmax,"[8]; mean (95% CI), n = 3, Table 4",36.1(33.7-38.6) ×10^−2 photon s^−1 molecule^−1
same,Km,[9],4.8 µM
same,Vmax,[9],6.0(5.3-6.9) ×10^−2 photon s^−1 molecule^−1
